The subject of one experiment is anti-HA mAb clone 12ca5. Nature of the experiment: Competition fluorescence polarization of HA epitope and analogues. As to conditions: for effect of mutation on affinity towards 12ca5: competition FP of HA epitope Ala scan mutants; for IC50: competition FP, 100 nM 12ca5, 28 nM YPYDVPDYAK(FITC)-CONH2, 1 mg/mL BSA, 0.02% Tween 20, 1x PBS, RT, read after 1 h; for Kd: from competition FP, 100 nM 12ca5, 28 nM FITC tracer. In kind it is binding. Here is the method:
Competition fluorescence polarization of HA epitope and analogues:
Solutions of unlabeled peptides (~1 mg/mL each; Supplementary Table 1) in 1x PBS was prepared in the presence of 100 nM 12ca5, 1 mg/mL BSA, 0.02% Tween 20 (120 μL). Fluorescent competitor was added (YPYDVPDYAK(FITC)α-CONH2; 28 nM).
The resulting solution was diluted serially (20 μL) into 100 nM 12ca5, 28 nM […]
YPYDVPDYAK(FITC)α-CONH2, 1 mg/mL BSA, 0.02% Tween 20 in 1x PBS (80 μL; […]
5-fold dilutions). The resulting solutions were transferred to a 96 well plate (Greiner Bio- […]
(RT), and read after 1 h on a Tecan Infinite M1000 plate reader (470 nm excitation; 517 nm detection; 5 nm bandwidth). The concentration of fluorescent […] was determined based on absorbance at 490 nm, using ε = 76,900 M-1cm-1.
Competition fluorescence polarization of HA epitope Ala scan mutants:
Competition fluorescence polarization experiments were carried out as described in Competition fluorescence polarization of HA epitope and analogues.
Background: Polarisation of emitted light reports the rotation of a fluorescent probe.

The next experiment deals with T1, 14-3-3σΔc (Homo sapiens, UniProt P31947).
T1 construct: The 14-3-3σ isoform with a truncated C-terminus after T321; His6 (cleaved yes); made in house; host or cells: BL21(DE3) Escherichia coli
T1 sequence (P31947 1-231 limits assumed): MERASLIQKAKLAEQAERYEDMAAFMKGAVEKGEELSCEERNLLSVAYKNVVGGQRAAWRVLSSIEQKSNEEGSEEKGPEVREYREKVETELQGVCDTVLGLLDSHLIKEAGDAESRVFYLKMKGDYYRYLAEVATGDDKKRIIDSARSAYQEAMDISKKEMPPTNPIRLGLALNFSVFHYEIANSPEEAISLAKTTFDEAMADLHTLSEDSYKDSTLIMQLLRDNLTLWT
The experiment in a line: Direct fluorescence anisotropy binding validation with 14-3-3σΔc. The note with it: 14-3-3σ.

Experiment [1] deals with T2, 14-3-3γ (Homo sapiens, UniProt P61981).
T2 construct: Full-length human 14-3-3γ was expressed by transforming pROEX HTb plasmid; His6; made in house; host or cells: Rosetta(DE3) Escherichia coli
T2 sequence (P61981 1-247): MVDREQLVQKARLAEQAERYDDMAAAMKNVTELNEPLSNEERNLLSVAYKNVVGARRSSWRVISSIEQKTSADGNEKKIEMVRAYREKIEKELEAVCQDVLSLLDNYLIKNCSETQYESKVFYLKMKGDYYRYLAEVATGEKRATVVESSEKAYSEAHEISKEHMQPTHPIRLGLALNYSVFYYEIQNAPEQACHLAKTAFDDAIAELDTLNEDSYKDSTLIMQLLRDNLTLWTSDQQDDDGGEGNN
The experiment in a line: Direct fluorescence anisotropy binding assay. How it is done: (§1) All direct fluorescence anisotropy affinity measurements were conducted in FA buffer (10 mM HEPES pH 7.4, 150 mM NaCl, 0.1% (v/v) Tween 20, 0.1% (w/v) BSA). A 1:1 dilution series of 14-3-3γ (starting at 100 μM) was performed in polystyrene non-binding low-volume Corning Black Round Bottom 384-well plates (Corning 4514) containing a fixed concentration FITC-labeled peptide (10 nM or 50 nM). Measurements were performed at ambient temperature using a Tecan Infinite F500 plate reader with the following parameters: λex: 485 (20) nm; λem: 535 (25) nm; mirror: Dichroic 510; flashes: 20; integration time: 50 μs; settle time; 0 μs; gain: manual 90; Z-position: calculated from well. The G-factor was set at 35 mP based on wells containing only the FITC-labeled peptide.
Fluorescence anisotropy binding assay of 14-3-3γ-binding peptides:
as §1, with “All” for “All direct”, “BSA). During each assay a” for “BSA). A”, “series” for “series of 14-3-3γ”, “μM) of 14-3-3γ” for “μM)”, “was made in wells containing a fixed concentration FITC-labeled peptide (10 nM or 50 nM). This was done” for “was performed”, “(Corning 4514).” for “(Corning 4514) containing a fixed concentration FITC-labeled peptide (10 nM or 50 nM).”

For experiment [2], the target named is T2, 14-3-3γ. The experiment in a line: Fluorescence anisotropy competition assay with FITC-labeled BiExoS. The experiment is classed as binding. How it is done:
All fluorescence anisotropy competition experiments were conducted in FA buffer (10 mM HEPES pH 7.4, 150 mM NaCl, 0.1% (v/v) Tween-20, 0.1% (w/v) BSA). A 1:1 dilution series of unlabeled peptides (starting at 10 μM) were performed in wells containing a fixed concentration FITC-labeled biExoS (10 nM) and 14-3-3γ (20 nM). Measurements were performed at ambient temperature using a Tecan Infinite F500 plate reader with the following parameters: λex = 485 (20) nm; λem = 535 (25) nm, mirror: Dichroic = 510, flashes: 20; integration time: 50 μs; settle time: 0 μs; gain: manual 90; and Z-position: calculated from well. The G-factor was set at 35 mP based on wells containing only the FITC-labeled peptide.
Competition fluorescence anisotropy binding assay of 14-3-3γ-binding peptides:
All fluorescence anisotropy affinity measurements were conducted in FA buffer (10 mM HEPES pH 7.4, 150 mM NaCl, 0.1% (v/v) Tween-20, 0.1% (w/v) BSA). During each assay a 1:1 dilution series (starting at 10 μM) of unlabeled peptides were made in wells containing a fixed concentration FITC-labeled biExoS (10 nM; FITC-O1Pen- […]
[…](GGSGGGGSGG)[…]-CONH2)5, and 14-3-3γ (20 nM).
This is done in polystyrene non -binding low-volume Corning Black Round Bottom 384 - well plates (Corning 4514). Measurements were performed at ambient temperature using a Tecan Infinite F500 plate reader with the following parameters : λex = 485 (20) nm; λem = 535 (25) nm, mirror: Dichroic = 510, flashes: 20; integration time: 50 μs; settle time: 0 μs; gain: manual 90; and Z-position: calculated from well. The G-factor was set at 35 mP based on wells containing only the FITC-labeled peptide.

[3] abbreviates: FITC-labeled peptide (10 or 50 nM), 14-3-3γ dilution from 100 μM, FA buffer pH 7.4, ambient temperature, ± 95% confidence interval, read-out: KD.

Like-named read-outs stand apart in the source and are kept apart here. Non-standard residues stand in square brackets, D forms with d. Residues, ends and D or L forms follow the SMILES beside them. *: point of attachment. FITC = O=C1OC2(c3ccc(O)cc3Oc3cc(O)ccc32)c2ccc(NC(=S)*)cc21; Phe(4-NO2) = N[C@@H](Cc1ccc([N+](=O)[O-])cc1)C(=O)O; Ala(4-thiazolyl) = N[C@@H](Cc1cscn1)C(=O)O; β3hT = C[C@@H](O)[C@H](N)CC(=O)O; pS = N[C@@H](COP(=O)(O)O)C(=O)O; Aad = N[C@@H](CCCC(=O)O)C(=O)O; Cha = N[C@@H](CC1CCCCC1)C(=O)O; β3hS = N[C@@H](CO)CC(=O)O; Orn = NCCC[C@H](N)C(=O)O; Nva = CCC[C@H](N)C(=O)O; βAla = NCCC(=O)O

On to YPYAVPDYAα-CONH2, for which, in the experiment with anti-HA mAb clone 12ca5, the “effect of mutation on affinity towards 12ca5” value (“effect of mutation” below) is “deleterious but did not completely abolish binding”.
In general, Kd refers to a measure of binding affinity in units of concentration. As to `CCC[C@H](NC(=O)[C@H](N)CCCCN)C(=O)N[C@@H](Cc1ccc([N+](=O)[O-])cc1)C(=O)N[C@@H](Cc1cscn1)C(=O)N[C@@H](COP(=O)(O)O)C(=O)N[C@@H](Cc1ccc([N+](=O)[O-])cc1)C(=O)N[C@@H](CO)CC(=O)NCCC(=O)N[C@@H](Cc1ccc([N+](=O)[O-])cc1)C(=O)N[C@@H](CCCCN)C(=O)NCCC(=O)N[C@@H](CCCCNC(=S)Nc1ccc2c(c1)C(=O)OC21c2ccc(O)cc2Oc2cc(O)ccc21)C(N)=O` [FITC-labeled 14-3-3.12] (H-[dK][Nva][Phe(4-NO2)][Ala(4-thiazolyl)][pS][Phe(4-NO2)][β3hS][βAla][Phe(4-NO2)]K[βAla]K(FITC)-NH2), the Kd at 14-3-3σΔc (0 h after incubation) was determined as 229 nM; at 14-3-3σΔc (4 h after incubation) it was 169 nM; on 14-3-3σΔc (20 h after incubation), 102 nM; on 14-3-3γ [1] (Kd, 14-3-3γ, 0 h after incubation), 19.5 nM; at 14-3-3γ [1] (Kd, 14-3-3γ, 4 h after incubation), 19.4 nM; on 14-3-3γ [1] (Kd, 14-3-3γ, 20 h after incubation), 21.9 nM.
A word on the IC50: it is the concentration needed to halve the response being measured. As for `CC(C)[C@H](NC(=O)[C@H](CC(=O)O)NC(=O)[C@H](Cc1ccc(O)cc1)NC(=O)[C@@H]1CCCN1C(=O)[C@@H](N)Cc1ccc(O)cc1)C(=O)N1CCC[C@H]1C(=O)N[C@@H](CC(=O)O)C(=O)N[C@@H](Cc1ccc(O)cc1)C(=O)NCC(N)=O` [YPYDVPDYG] (H-YPYDVPDYG-NH2; N-terminus assumed), in the experiment with anti-HA mAb clone 12ca5, the “effect of mutation” value was “deleterious but did not completely abolish binding”, the half-maximal inhibitory concentration (IC50) came to 3600 ± 1000 nM and the dissociation constant Kd came out at 170 ± 70 nM.
On to `NC(=O)[C@@H](Cc1c[nH]cn1)NC(=O)[C@H]1CCCN1C(=O)[C@@H](CCC(=O)O)NC(=O)[C@@H](CC(=O)O)NC(=O)[C@@H](Cc1ccccc1)NC(=O)[C@@H](CCC(=O)O)NC(=O)[C@@H](Cc1ccc(O)cc1)NC(=O)[C@H]1CCCN1C(=O)[C@H](N)Cc1ccc(O)cc1` [ypyefdeph, reference compound] (H-[dY][dP][dY][dE][dF][dD][dE][dP][dH]-NH2), for which, in the experiment with anti-HA mAb clone 12ca5, the IC50 was found to be 380000 ± 25000 nM and the Kd was 18000 ± 4000 nM.
For `CC(C)C[C@@H](N)C(=O)N[C@@H](Cc1ccc([N+](=O)[O-])cc1)C(=O)N[C@@H](CO)CC(=O)N[C@@H](Cc1ccc([N+](=O)[O-])cc1)C(=O)N[C@@H](COP(=O)(O)O)C(=O)N[C@@H](Cc1ccc([N+](=O)[O-])cc1)C(=O)N[C@@H](CO)CC(=O)NCCC(=O)N[C@@H](Cc1ccc([N+](=O)[O-])cc1)C(=O)N[C@@H](CCCCN)C(N)=O` [14-3-3.1] (H-[dL][Phe(4-NO2)][β3hS][Phe(4-NO2)][pS][Phe(4-NO2)][β3hS][βAla][Phe(4-NO2)]K-NH2), the IC50 at 14-3-3γ [2] turned out to be 465 ± 45 nM. Besides, the dissociation constant Kd at 14-3-3γ [1] (KD, FITC-labeled peptide (10 or 50 nM), 14-3-3γ dilution from 100 μM, FA buffer pH 7.4, ambient temperature, ± 95% confidence interval) was found to be 5.7 ± 1 nM.
Consider `NCCCC[C@H](NC(=O)[C@H](Cc1ccc([N+](=O)[O-])cc1)NC(=O)C[C@H](CO)NC(=O)C[C@H](CO)NC(=O)[C@H](Cc1ccc([N+](=O)[O-])cc1)NC(=O)[C@H](COP(=O)(O)O)NC(=O)[C@H](CCCN)NC(=O)C[C@H](CO)NC(=O)[C@H](CC1CCCCC1)NC(=O)[C@@H](N)CC1CCCCC1)C(N)=O` [14-3-3.6] (H-[Cha][Cha][β3hS][Orn][pS][Phe(4-NO2)][β3hS][β3hS][Phe(4-NO2)]K-NH2; N-terminus and C-terminus assumed), for which the IC50 on 14-3-3γ [2] (unlabeled peptide from 10 μM, 10 nM FITC-labeled biExoS, 20 nM 14-3-3γ, FA buffer pH 7.4, ambient temperature, read-out: IC50) was 77 ± 8 nM. Besides, the Kd at 14-3-3γ [1] (setting [3]) stood at 3.1 ± 0.3 nM.
As for YPYDVPDAAα-CONH2, the “effect of mutation” value in the experiment with anti-HA mAb clone 12ca5 is listed as “completed abrogated affinity”.
As to YPYDVPAYAα-CONH2, the “effect of mutation” value in the experiment on anti-HA mAb clone 12ca5 is listed as “completed abrogated affinity”.
`C[C@@H](O)[C@@H](CC(=O)N[C@@H](CCCCN)C(N)=O)NC(=O)[C@H](Cc1ccc([N+](=O)[O-])cc1)NC(=O)[C@H](Cc1cscn1)NC(=O)[C@H](CCCC(=O)O)NC(=O)[C@H](COP(=O)(O)O)NC(=O)[C@H](Cc1cscn1)NC(=O)[C@@H](CCC(N)=O)NC(=O)C[C@H](CO)NC(=O)[C@H](N)CCCCN` [NB.1] (H-[dK][β3hS][dQ][Ala(4-thiazolyl)][pS][Aad][Ala(4-thiazolyl)][Phe(4-NO2)][β3hT]K-NH2; N-terminus and C-terminus assumed): the “inhibitory activity (competition with BiExoS)” value on 14-3-3γ [2] (unlabeled peptide, 10 nM FITC-labeled biExoS, 20 nM 14-3-3γ) is on record as “no inhibitory activity”. For the same compound, the equilibrium dissociation constant (Kd) at 14-3-3γ [1] (setting [3]) is 64000 ± 20000 nM. Moreover, at 14-3-3γ [1] (fluorescence anisotropy, FITC-labeled peptides), the “fold weaker binding than the 14-3-3γ-binding peptides” value is ~ 10,000 fold.

These data come from paper PMC7311396, “Ultra-large chemical libraries for the discovery of high-affinity peptide binders” (Nature Communications, 2020).
